Target: T1, N-formyl peptide receptor 2 (Homo sapiens, UniProt P25090)
T1 sequence (P25090 whole entry): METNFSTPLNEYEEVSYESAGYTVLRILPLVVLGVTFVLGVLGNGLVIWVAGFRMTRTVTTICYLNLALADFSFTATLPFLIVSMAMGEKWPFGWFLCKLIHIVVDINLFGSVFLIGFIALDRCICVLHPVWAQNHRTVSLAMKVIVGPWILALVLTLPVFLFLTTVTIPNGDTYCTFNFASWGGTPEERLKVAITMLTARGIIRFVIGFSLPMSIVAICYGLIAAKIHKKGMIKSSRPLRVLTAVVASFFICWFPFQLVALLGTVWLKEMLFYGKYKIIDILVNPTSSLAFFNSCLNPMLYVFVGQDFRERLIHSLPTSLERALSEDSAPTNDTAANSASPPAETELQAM
Assay: human FPR2 ligand displacement potency – cell-based, flow cytometry, Ki from IC50, dose response (AID 766)

Q: Which IC50 does the source give for `O=C(N1CCN(c2nc(-c3ccccc3)c3ccccc3n2)CC1)C(F)(F)F` [2,2,2-trifluoro-1-[4-(4-phenyl-2-quinazolinyl)-1-piperazinyl]ethanone] here?
A: Its IC50 is greater than 57.5 µM.

Q: `COc1ccc(-c2cc(C(F)(F)F)nc(N3CCN(C(c4ccccc4)c4ccccc4)CC3)n2)cc1OC` [2-(4-benzhydrylpiperazin-1-yl)-4-(3,4-dimethoxyphenyl)-6-(trifluoromethyl)pyrimidine] was tested. Which IC50 did it give?
A: Its IC50 is greater than 41.6 µM.

Q: Which IC50 (inactive by the depositor's call) does the source give for `COc1ccc(-c2cc(C(F)(F)F)nc(N3CCN(Cc4ccccc4)CC3)n2)cc1OC` [2-(4-benzylpiperazin-1-yl)-4-(3,4-dimethoxyphenyl)-6-(trifluoromethyl)pyrimidine] here?
A: Its IC50 is 16.5 µM.

Q: For `COc1ccc(-c2cc(C(F)(F)F)nc(N3CCN(c4ccccc4)CC3)n2)cc1OC` [4-(3,4-dimethoxyphenyl)-2-(4-phenyl-1-piperazinyl)-6-(trifluoromethyl)pyrimidine], which IC50 is on record?
A: Its IC50 is greater than 50 µM.

Q: Which IC50 does the source give for `CCOC(=O)N1CCN(c2nc(-c3ccc(OC)c(OC)c3)cc(C(F)(F)F)n2)CC1` [4-[4-(3,4-dimethoxyphenyl)-6-(trifluoromethyl)-2-pyrimidinyl]-1-piperazinecarboxylic acid ethyl ester] here?
A: The IC50 was greater than 50.5 µM.

Q: With `COc1ccc(-c2cn3cccnc3n2)cc1NC(=O)C1CC1` [MLS000045944] as the compound, how does the IC50 read?
A: The IC50 was 6.7 µM.

Q: Which IC50 does the source give for `COc1ccc(-c2cn3cccnc3n2)cc1NC(=O)C1CCCC1` [MLS000045945] here?
A: Its IC50 is greater than 66.1 µM.

Q: For `COc1ccc(CC(=O)Nc2cc(-c3cn4cccnc4n3)ccc2OC)cc1` [N-(5-imidazo[1,2-a]pyrimidin-2-yl-2-methoxy-phenyl)-2-(4-methoxyphenyl)acetamide], which IC50 is on record?
A: The IC50 was 9.9 µM.

Q: For `COc1ccc(-c2cn3cccnc3n2)cc1NC(=O)C(C)C` [N-(5-imidazo[1,2-a]pyrimidin-2-yl-2-methoxy-phenyl)-2-methyl-propanamide], which IC50 is on record?
A: Its IC50 is 3.6 µM.

Q: With `CCC(=O)Nc1cc(-c2cn3cccnc3n2)ccc1OC` [N-(5-imidazo[1,2-a]pyrimidin-2-yl-2-methoxy-phenyl)propanamide] as the compound, how does the IC50 read?
A: The IC50 was 10.7 µM.

Source: BindingDB's records for doi:10.7270/Q2NP22V6 (NMMLSC, 2007)
